Usually IC50 stands for the concentration needed to halve the response being measured.

Experimental findings from US20240262806A1, “INHIBITORS OF NLRP3” (PTC THERAPEUTICS, INC., priority 2021, published 2024) are described below.

The assay relates to NLRP3 inflammasome. In words: IL-1β Secretion Assay (NLRP3-dependent IL-1β secretion in PMA-differentiated THP-1 cells, nigericin activation, HTRF). Type of assay: cell-based. Conditions: Homo sapiens, THP-1, THP-1 cells, 100 ng/mL PMA 24 h, compound 20 h, 2.5 μM Nigericin 3 h; read-out: IC50 IL-1β Inhibition. Put shortly: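 IL-1β release, quantified by HTRF after nigericin activation of the NLRP3 inflammasome, was the read-out. A logistic fit of percent inhibition gave IC50.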
A general note: TR-FRET usually uses a lanthanide donor and a delayed reading to cut background.
With `Oc1cc(C(F)(F)F)ccc1-c1nnc(N[C@H]2CNCCOC2)c2cnccc12` [Compound I-252], the IC50 fell in the range of 10 to 100 nM. Next, `Oc1cc(C(F)(F)F)ccc1-c1nnc(NC2CCCNCC2)c2cnccc12` (centres unmarked) [Compound I-253]: 1 to 10 nM; `COc1ccc(-c2nnc(N[C@@H]3CCCN(C)C3)c3cnccc23)c(C)c1` [Compound I-254]: 1 to 10 nM. Next, `Cc1noc2c(-c3ccc(C(F)(F)F)cc3O)nnc(N[C@@H]3CCCN(C)C3)c12` [Compound I-255, 2-[3-methyl-4-[[(3R)-1-methyl-3-piperidyl]amino]isoxazolo[4,5-d]pyridazin-7-yl]-5-(trifluoromethyl)phenol]: 1 to 10 nM; `Cc1noc2c(-c3ccc(C(F)(F)F)cc3O)nnc(N[C@@H]3CCCN(CCO)C3)c12` [Compound I-256, 2-[3-methyl-4-[[(3R)-1-(2-hydroxyethyl)-3-piperidyl]amino]isoxazolo[4,5-d]pyridazin-7-yl]-5-(trifluoromethyl)phenol]: 10 to 100 nM. Regarding `Oc1cc(C(F)(F)F)ccc1-c1nnc(N[C@@H]2CCCN(C3CC(CC(F)F)C3)C2)c2cnccc12` (some centres unmarked) [Compound I-257], the IC50 was 1 to 10 nM. Next, `COc1ccc(-c2nnc(N[C@@H]3CCCN(C)C3)c3c2CCC3)c(C(F)(F)F)c1` [Compound I-258]: 10 to 100 nM.

On to `CN1CCC[C@@H](Nc2nnc(-c3ccc(C(F)(F)F)cc3C(F)(F)F)c3c2CCC3)C1` [Compound I-259], for which the IC50 is 10 to 100 nM.

As for `CN1CCOCC(Nc2nnc(-c3ccc(C(F)(F)F)cc3O)c3cnccc23)C1` (centres unmarked) [Compound I-260], the IC50 fell in the range of 10 to 100 nM. The value for `Oc1cc(C(F)(F)F)ccc1-c1nnc(N[C@@H]2CCCCNC2)c2cnccc12` [Compound I-261] was 1 to 10 nM. For `CN1CCOCC(Nc2nnc(-c3ccc(C(F)(F)F)cc3O)c3ccncc23)C1` (centres unmarked) [Compound I-262], the IC50 lay in the range of 1 to 10 nM.

Consider `CN1CCCC(Nc2nnc(-c3ccc(C(F)(F)F)cc3O)c3ccncc23)CC1` (centres unmarked) [Compound I-263], for which the IC50 fell in the range of 1 to 10 nM. Next, `CN1CCN(C)CC(Nc2nnc(-c3ccc(C(F)(F)F)cc3O)c3ccncc23)C1` [Compound I-264]: 10 to 100 nM; `CN1C[C@H](Nc2nnc(-c3ccc(C(F)(F)F)cc3O)c3ccncc23)CC(F)(F)C1` [Compound I-265]: 1 to 10 nM. On to `CCOC(=O)[C@@H]1CC[C@@H](Nc2nnc(-c3ccc(C(F)(F)F)cc3O)c3ccncc23)CN1` [Compound I-266, Ethyl (2S,5R)-5-((1-(2-hydroxy-4-(trifluoromethyl)phenyl)pyrido[3,4-d]pyridazin-4-yl)amino)piperidine-2-carboxylate], for which the IC50 was < 1 nM.

For the molecule `COc1cc(C)cc(O)c1-c1nnc(N[C@@H]2CCCN(C)C2)c2cnccc12` [Compound I-267], the IC50 lay in the range of 1 to 10 nM.

As to `Cc1cc(O)c(-c2nnc(N[C@@H]3CCCN(C)C3)c3cnccc23)c(O)c1` [Compound I-268], the IC50 is < 1 nM. The value for `Oc1cc(C(F)(F)F)ccc1-c1nnc(N[C@@H]2CCCN(C3COC3)C2)c2cnccc12` [Compound I-271] was 1 to 10 nM; that for `Cc1cc(C2CC2)ccc1-c1nnc(N[C@@H]2CCCN(C)C2)c2cnccc12` [Compound I-272] was 1 to 10 nM. As to `Cc1cc(O)c(-c2nnc(N[C@@H]3CCCN(CCO)C3)c3cnccc23)c(F)c1` [Compound I-273], the IC50 was < 1 nM.

As for `CN1CCC[C@@H](Nc2nnc(-c3c(O)cc(C(F)(F)F)cc3C3CC3)c3ccncc23)C1` [Compound I-274, 3-Cyclopropyl-2-[4-[[(3R)-1-methyl-3-piperidyl]amino]pyrido[3,4-d]pyridazin-1-yl]-5-(trifluoromethyl)phenol], the IC50 was 1 to 10 nM. Next, `CN(C)C(C)(C)CNc1nnc(-c2ccc(C(F)(F)F)cc2O)c2ccncc12` [Compound I-275]: 1 to 10 nM; `COc1cc(C(F)(F)F)ccc1-c1nnc(N[C@@H]2CCCN(CCOC(F)F)C2)c2cnccc12` [Compound I-276]: 10 to 100 nM; `Oc1cc(C(F)(F)F)ccc1-c1nnc(N[C@@H]2CCCN(CC(F)F)C2)c2cnccc12` [Compound I-277]: < 1 nM. In the case of `CN1C[C@@H](F)C[C@H](Nc2nnc(-c3ccc(C(F)(F)F)cc3O)c3ccncc23)C1` [Compound I-278], the IC50 was in the range of 10 to 100 nM. For `Oc1cc(C(F)(F)F)ccc1-c1nnc(N[C@@H]2CCCN(C3CCOCC3)C2)c2cnccc12` [Compound I-279], the IC50 was < 1 nM. Next, `CN1C[C@H](F)C[C@@H](Nc2nnc(-c3ccc(C(F)(F)F)cc3O)c3ccncc23)C1` [Compound I-280]: < 1 nM; `Oc1cc(C(F)(F)F)ccc1-c1nnc(N[C@@H]2CCCN(C3CCOC3)C2)c2cnccc12` (some centres unmarked) [Compound I-281]: < 1 nM.

`OCCN1CCC[C@@H](Nc2nnc(-c3c(O)cc(Cl)cc3F)c3ccncc23)C1` [Compound I-282, 5-Chloro-3-fluoro-2-[4-[[(3R)-1-(2-hydroxyethyl)-3-piperidyl]amino]pyrido[3,4-d]-pyridazin-1-yl]phenol]: the IC50 is < 1 nM.

Regarding `Oc1cc(C(F)(F)F)ccc1-c1nnc(N[C@@H]2CCCN(CC(F)(F)F)C2)c2cnccc12` [Compound I-283], the IC50 is < 1 nM.

In the case of `OCCN1CCC[C@@H](Nc2nnc(-c3c(O)cc(C4CC4)cc3F)c3ccncc23)C1` [Compound I-284, 5-Cyclopropyl-3-fluoro-2-[4-[[(3R)-1-(2-hydroxyethyl)-3-piperidyl]amino]-pyrido[3,4-d]pyridazin-1-yl]phenol], the IC50 is < 1 nM.

With `OCCN1CCC[C@@H](Nc2nnc(-c3c(O)cccc3F)c3ccncc23)C1` [Compound I-285, 3-Fluoro-2-[4-[[(3R)-1-(2-hydroxyethyl)-3-piperidyl]amino]pyrido[3,4-d]pyridazin-1-yl]phenol], the IC50 fell in the range of 1 to 10 nM. In the case of `CC(C)(O)CN1CCC[C@@H](Nc2nnc(-c3ccc(C(F)(F)F)cc3O)c3ccncc23)C1` [Compound I-286], the IC50 was < 1 nM. For `COc1ccc(-c2nnc(N[C@@H]3CCCN(C)C3)c3cnccc23)c(C(F)F)c1` [Compound I-287], the IC50 was in the range of 1 to 10 nM. The value for `Oc1cc(C(F)(F)F)ccc1-c1nnc(NC2CCCCC2)c2cnccc12` [Compound I-288] was 1 to 10 nM; that for `CN1CCC[C@@H](Nc2nnc(-c3ccc(Cl)cc3C(F)(F)F)c3ccncc23)C1` [Compound I-289] was 1 to 10 nM; that for `Cc1cc(C(F)(F)F)ccc1-c1nnc(N[C@@H]2CCCN(C)C2)c2cnccc12` [Compound I-290] was 1 to 10 nM. Next, `CC(C)Oc1cc(C(F)(F)F)ccc1-c1nnc(N[C@@H]2CCCN(C)C2)c2cnccc12` [Compound I-291]: 1 to 10 nM; `CN(c1nnc(-c2ccc(C(F)(F)F)cc2O)c2ccncc12)[C@@H]1CCCNC1` [Compound I-292, (R)-2-(4-(Methyl(piperidin-3-yl)amino)pyrido[3,4-d]pyridazin-1-yl)-5-(trifluoromethyl)phenol]: 1 to 10 nM.

For `Oc1cc(C(F)(F)F)ccc1-c1nnc(N[C@@H]2CCCN(CCOC(F)F)C2)c2cnccc12` [Compound I-293], the IC50 was < 1 nM. For the molecule `Oc1cc(C(F)(F)F)ccc1-c1nnc(N[C@@H]2CCCN(CCCF)C2)c2cnccc12` [Compound I-294], the IC50 was < 1 nM.

Regarding `CC(C)N1CCC[C@@H](Nc2nnc(-c3ccc(C(F)(F)F)cc3O)c3ccncc23)C1` [Compound I-295], the IC50 was < 1 nM.

Consider `COc1ccc(-c2nnc(N[C@H]3CCCN(C)C3)c3cnccc23)c(C(C)C)c1` [Compound I-296], for which the IC50 was in the range of 1 to 10 nM. In the case of `Cc1ccc(-c2nnc(N[C@@H]3CCCN(C)C3)c3cnccc23)c(C(F)(F)F)c1` [Compound I-298], the IC50 was 1 to 10 nM. With `Cc1ccc(-c2nnc(N[C@@H]3CCCN(C)C3)c3cnccc23)c(C(F)F)c1` [Compound I-299], the IC50 is < 1 nM.

As for `[2H]C1(N2CCC[C@@H](Nc3nnc(-c4ccc(C(F)(F)F)cc4O)c4ccncc34)C2)CCC1` [Compound I-300], the IC50 was < 1 nM. The value for `Oc1cc(C(F)(F)F)ccc1-c1nnc(N[C@H]2CNCC[C@H]2F)c2cnccc12` [Compound I-301] was 1 to 10 nM; that for `CN1CCC(CNc2nnc(-c3ccc(C(F)(F)F)cc3O)c3ccncc23)CC1` [Compound I-302] was 1 to 10 nM. As to `OCCN1CCC(CNc2nnc(-c3ccc(C(F)(F)F)cc3O)c3ccncc23)CC1` [Compound I-303], the IC50 fell in the range of 1 to 10 nM. Take `Cc1cc(O)c(-c2nnc(N[C@@H]3CCCN(C)C3)c3ncccc23)c(F)c1` [Compound I-304]: the IC50 was < 1 nM. The value for `C[C@]1(O)C[C@@H](Nc2nnc(-c3ccc(C(F)(F)F)cc3O)c3ccncc23)C1` [Compound I-305] was < 1 nM. Next, `Oc1cc(C(F)(F)F)ccc1-c1nnc(N[C@H]2CNC[C@H](F)C2)c2cnccc12` [Compound I-306]: < 1 nM; `CCc1ccc(-c2nnc(N[C@@H]3CCCN(C)C3)c3cnccc23)c(O)c1` [Compound I-307]: < 1 nM. The value for `CO[C@H]1CCC[C@@H](Nc2nnc(-c3ccc(C(F)(F)F)cc3O)c3ccncc23)C1` [Compound I-308] was < 1 nM; that for `Oc1cc(C(F)(F)F)ccc1-c1nnc(N[C@@H]2CCCOC2)c2cnccc12` [Compound I-309] was 1 to 10 nM. Take `Oc1cc(C(F)(F)F)ccc1-c1nnc(N[C@H]2CCCOC2)c2cnccc12` [Compound I-310]: the IC50 is 1 to 10 nM. Next, `FC(F)Oc1cc(C(F)(F)F)ccc1-c1nnc(N[C@@H]2CCCNC2)c2cnccc12` [Compound I-311]: 1 to 10 nM. On to `FC(F)Oc1cc(C(F)(F)F)ccc1-c1nnc(N[C@@H]2CCCN(C3CCC3)C2)c2cnccc12` [Compound I-312], for which the IC50 is < 1 nM. The value for `CN1CCC[C@@H](Nc2nnc(-c3ccc(C(F)(F)F)cc3O)c3ccoc23)C1` [Compound I-313, (R)-2-(7-((1-Methylpiperidin-3-yl)amino)furo[2,3-d]pyridazin-4-yl)-5-(trifluoromethyl)phenol] was < 1 nM.
